In patent publication US10144706B2 (BRISTOL-MYERS SQUIBB COMPANY, priority 2016, dated 2018):
Where two headings read alike, the source gives them in different places.

Biological target: T1, PD-1/PD-L1 interaction (PD-1-Ig / PD-L1-His) (Homo sapiens, UniProt Q9NZQ7)
T1 construct: hPDL1(18-239)-TVMV-His; TVMV protease site linker (C); made in house; host or cells: HEK293T
Assay: PD-1/PD-L1 Homogenous Time-Resolved Fluorescence (HTRF) binding assay
Conditions: PD-L1-His 10 nM, PD-1-Ig 20 nM, read-out: Range or IC50
Procedure, shortened: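 HTRF detection used 1 nM europium-cryptate anti-Ig and 20 nM APC anti-His. Compounds first saw 10 nM PD-L1-His for 15 min, and 20 nM PD-1-Ig was then added for another 15 min. Buffer was dPBS plus 0.1% BSA and 0.05% Tween-20. All concentrations are final.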

T1 sequence (Q9NZQ7 with tags, fused parts or gaps): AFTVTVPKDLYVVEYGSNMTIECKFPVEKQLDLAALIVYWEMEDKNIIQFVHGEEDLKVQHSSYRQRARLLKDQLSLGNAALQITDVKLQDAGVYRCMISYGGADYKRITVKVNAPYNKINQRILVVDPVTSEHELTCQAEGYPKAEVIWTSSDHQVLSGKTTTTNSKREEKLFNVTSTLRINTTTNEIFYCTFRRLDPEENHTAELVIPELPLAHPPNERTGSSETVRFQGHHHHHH

IC50 (IC50 range class) [nM] | IC50 (numeric IC50) [nM] | SMILES
0.04 to 20 | – | Cc1c(COc2cc(OCc3cncc(C#N)c3)c(CN[C@](C)(CO)C(=O)O)cc2Cl)cccc1-c1cccc(COc2cc(OCc3cncc(C#N)c3)c(CN[C@](C)(CO)C(=O)O)cc2Cl)c1C [Example 2121, (2R,2′R)-2,2′-((((((2,2′-dimethyl-[1,1′-biphenyl]-3,3′-diyl)bis(methylene))bis(oxy))bis(5-chloro-2-((5-cyanopyridin-3-yl)methoxy)-4,1-phenylene))bis(methylene))bis(azanediyl))bis(3-hydroxy-2-methylpropanoic acid)]
0.04 to 20 | – | COc1cc(OCc2cccc(-c3cccc(COc4cc(OC)c(CNC(CO)CO)cc4Cl)c3C)c2C)c(Cl)cc1CNC(CO)CO [Example 2122, 2,2′-((((((2,2′-dimethyl-[1,1′-biphenyl]-3,3′-diyl)bis(methylene))bis(oxy))bis(5-chloro-2-methoxy-4,1-phenylene))bis(methylene))bis(azanediyl))bis(propane-1,3-diol)]
0.04 to 20 | – | Cc1c(COc2cc(OCc3cncc(C#N)c3)c(CN[C@@](C)(CO)C(=O)O)cc2Cl)cccc1-c1cccc(COc2cc(OCc3cncc(C#N)c3)c(CN[C@@](C)(CO)C(=O)O)cc2Cl)c1C [Example 2123, (2S,2′S)-2,2′-((((((2,2′-dimethyl-[1,1′-biphenyl]-3,3′-diyl)bis(methylene))bis(oxy))bis(5-chloro-2-((5-cyanopyridin-3-yl)methoxy)-4,1-phenylene))bis(methylene))bis(azanediyl))bis(3-hydroxy-2-methylpropanoic acid)]
0.04 to 20 | – | Cc1c(COc2cc(OCc3cncc(C#N)c3)c(CO)cc2Cl)cccc1-c1cccc(COc2cc(OCc3cncc(C#N)c3)c(CN[C@@](C)(CO)C(=O)O)cc2Cl)c1C [Example 2124, (S)-2-((5-chloro-4-((3′-((2-chloro-5-((5-cyanopyridin-3-yl)methoxy)-4-(hydroxymethyl)phenoxy)methyl)-2,2′-dimethyl-[1,1′-biphenyl]-3-yl)methoxy)-2-((5-cyanopyridin-3-yl)methoxy)benzyl)amino)-3-hydroxy-2-methylpropanoic acid]
0.04 to 20 | – | Cc1c(COc2cc(OCc3cncc(C#N)c3)c(CN3CC[C@@H](O)C3)cc2Cl)cccc1-c1cccc(COc2cc(OCc3cncc(C#N)c3)c(CN3CC[C@@H](O)C3)cc2Cl)c1C [Example 2125, 5,5′-((((((2,2′-dimethyl-[1,1′-biphenyl]-3,3′-diyl)bis(methylene))bis(oxy))bis(4-chloro-6-(((R)-3-hydroxypyrrolidin-1-yl)methyl)-3,1-phenylene))bis(oxy))bis(methylene))dinicotinonitrile]
20.1 to 90 | – | Cc1c(COc2cc(OCc3cncc(C#N)c3)c(CO)cc2Cl)cccc1-c1cccc(COc2cc(OCc3cncc(C#N)c3)c(CN3CC[C@@H](O)C3)cc2Cl)c1C [Example 2126, (R)-5-((4-chloro-5-((3′-((2-chloro-5-((5-cyanopyridin-3-yl)methoxy)-4-((3-hydroxypyrrolidin-1-yl)methyl)phenoxy)methyl)-2,2′-dimethyl-[1,1′-biphenyl]-3-yl)methoxy)-2-(hydroxymethyl)phenoxy)methyl)nicotinonitrile]
0.04 to 20 | – | Cc1c(COc2cc(OCc3cncc(C#N)c3)c(CNC[C@H](O)CO)cc2Cl)cccc1-c1cccc(COc2cc(OCc3cncc(C#N)c3)c(CNC[C@H](O)CO)cc2Cl)c1C [Example 2127, 5,5′-((((((2,2′-dimethyl-[1,1′-biphenyl]-3,3′-diyl)bis(methylene))bis(oxy))bis(4-chloro-6-((((S)-2,3-dihydroxypropyl)amino)methyl)-3,1-phenylene))bis(oxy))bis(methylene))dinicotinonitrile]
0.04 to 20 | – | Cc1c(COc2cc(OCc3cncc(C#N)c3)c(CNC(CO)CO)cc2Cl)cccc1-c1cccc(COc2cc(OCc3cncc(C#N)c3)c(CNC(CO)CO)cc2Cl)c1C [Example 2128, 5,5′-((((((2,2′-dimethyl-[1,1′-biphenyl]-3,3′-diyl)bis(methylene))bis(oxy))bis(4-chloro-6-(((1,3-dihydroxypropan-2-yl)amino)methyl)-3,1-phenylene))bis(oxy))bis(methylene))dinicotinonitrile]
90.1 to 1000 | – | Cc1c(COc2cc(OCc3cncc(C#N)c3)c(CO)cc2Cl)cccc1-c1cccc(COc2cc(OCc3cncc(C#N)c3)c(CNC(CO)CO)cc2Cl)c1C [Example 2129, 5-((4-chloro-5-((3′-((2-chloro-5-((5-cyanopyridin-3-yl)methoxy)-4-(((1,3-dihydroxypropan-2-yl)amino)methyl)phenoxy)methyl)-2,2′-dimethyl-[1,1′-biphenyl]-3-yl)methoxy)-2-(hydroxymethyl)phenoxy)methyl)nicotinonitrile]
0.04 to 20 | – | Cc1c(COc2cc(OCc3cncc(C#N)c3)c(CN(C[C@H](O)CO)C(CO)CO)cc2Cl)cccc1-c1cccc(COc2cc(OCc3cncc(C#N)c3)c(CN(C[C@H](O)CO)C(CO)CO)cc2Cl)c1C [Example 2131, 5,5′-((((((2,2′-dimethyl-[1,1′-biphenyl]-3,3′-diyl)bis(methylene))bis(oxy))bis(4-chloro-6-(((1,3-dihydroxypropan-2-yl)((S)-2,3-dihydroxypropyl)amino)methyl)-3,1-phenylene))bis(oxy))bis(methylene))dinicotinonitrile]
90.1 to 1000 | – | Cc1c(COc2cc(OCc3cncc(C#N)c3)c(CN3C(=O)OCC3CO)cc2Cl)cccc1-c1cccc(COc2cc(OCc3cncc(C#N)c3)c(CN3C(=O)OCC3CO)cc2Cl)c1C (centres unmarked) [Example 2133, 5,5′-((((((2,2′-dimethyl-[1,1′-biphenyl]-3,3′-diyl)bis(methylene))bis(oxy))bis(4-chloro-6-((4-(hydroxymethyl)-2-oxooxazolidin-3-yl)methyl)-3,1-phenylene))bis(oxy))bis(methylene))dinicotinonitrile]
1000 to 10000 | – | O=C(NCCCOc1cccc(-c2cccc(OCCCNC(=O)C(O)CO)c2Cl)c1Cl)C(O)CO (centres unmarked) [Example 2135, N,N′-(((2,2′-dichloro-[1,1′-biphenyl]-3,3′-diyl)bis(oxy))bis(propane-3,1-diyl))bis(2,3-dihydroxypropanamide)]
– | 3450 | O=C(O)C[C@@H](O)C(=O)NCCCOc1cccc(-c2cccc(OCCCNC(=O)[C@H](O)CC(=O)O)c2Cl)c1Cl [Example 2136, (3R,3′R)-4,4′-((((2,2′-dichloro-[1,1′-biphenyl]-3,3′-diyl)bis(oxy))bis(propane-3,1-diyl))bis(azanediyl))bis(3-hydroxy-4-oxobutanoic acid)]

The next lines start with the compound.

SMILES | IC50 (IC50 range class) [nM] | IC50 (numeric IC50) [nM]
Cc1c(OCCCNC2C[C@H](CO)[C@@H](O)[C@H]2O)cccc1-c1cccc(OCCCN[C@@H]2C[C@H](CO)[C@@H](O)[C@H]2O)c1C (stereo partly drawn) [Example 2132, (1R,2S,5R)-3-((3-((3′-(3-(((1R,2S,3R,4R)-2,3-dihydroxy-4-(hydroxymethyl)cyclopentyl)amino)propoxy)-2,2′-dimethyl-[1,1′-biphenyl]-3-yl)oxy)propyl)amino)-5-(hydroxymethyl)cyclopentane-1,2-diol] | 0.04 to 20 | –
NCCCOc1cccc(-c2cccc(OCCCN)c2Cl)c1Cl [Example 2134, 3,3′-((2,2′-dichloro-[1,1′-biphenyl]-3,3′-diyl)bis(oxy))bis(propan-1-amine)] | 90.1 to 1000 | –
Cc1c(OCCCN2CC[C@@H](O)C2)cccc1-c1cccc(OCCCN2CC[C@@H](O)C2)c1C [Example 3001, (3R,3′R)-1,1′-(((2,2′-dimethyl-[1,1′-biphenyl]-3,3′-diyl)bis(oxy))bis(propane-3,1-diyl))bis(pyrrolidin-3-ol)] | 0.04 to 20 | –
Cc1c(OCCCCN2CC[C@@H](O)C2)cccc1-c1cccc(OCCCN2CC[C@@H](O)C2)c1C [Example 3002, (R)-1-(3-((3′-(4-((R)-3-hydroxypyrrolidin-1-yl)butoxy)-2,2′-dimethyl-[1,1′-biphenyl]-3-yl)oxy)propyl) pyrrolidin-3-ol] | 0.04 to 20 | –
Cc1c(OCCCCCN2CC[C@@H](O)C2)cccc1-c1cccc(OCCCN2CC[C@@H](O)C2)c1C [Example 3003, (R)-1-(3-((3′-((5-((R)-3-hydroxypyrrolidin-1-yl)pentyl)oxy)-2,2′-dimethyl-[1,1′-biphenyl]-3-yl)oxy)propyl)pyrrolidin-3-ol] | 0.04 to 20 | –
Cc1cc(OCCCN2CC[C@@H](O)C2)ccc1-c1cccc(OCCCCN2CC[C@@H](O)C2)c1C [Example 3004, (R)-1-(3-((3′-(4-((R)-3-hydroxypyrrolidin-1-yl)butoxy)-2,2′-dimethyl-[1,1′-biphenyl]-4-yl)oxy)propyl) pyrrolidin-3-ol] | 1000 to 10000 | –
Cc1cc(OCCCN2CC[C@@H](O)C2)ccc1-c1cccc(OCCCCCN2CC[C@@H](O)C2)c1C [Example 3005, (R)-1-(3-((3′-((5-((R)-3-hydroxypyrrolidin-1-yl)pentyl)oxy)-2,2′-dimethyl-[1,1′-biphenyl]-4-yl)oxy)propyl)pyrrolidin-3-ol] | 1000 to 10000 | –
Cc1cc(OCCCN2CC[C@@H](O)C2)ccc1-c1cccc(OCCCN2CC[C@@H](O)C2)c1C [Example 3006, (3R,3′R)-1,1′-(((2,2′-dimethyl-[1,1′-biphenyl]-3,4′-diyl)bis(oxy))bis(propane-3,1-diyl))bis(pyrrolidin-3-ol)] | 1000 to 10000 | –
Cc1c(OCCCN(C)C)cccc1-c1cccc(OCCCN2CC[C@@H](O)C2)c1C [Example 3007, (R)-1-(3-((3′-(3-(dimethylamino)propoxy)-2,2′-dimethyl-[1,1′-biphenyl]-3-yl)oxy)propyl)pyrrolidin-3-ol] | 0.04 to 20 | –
Cc1c(OCCCN2CC[C@@H](O)C2)cccc1-c1cccc(C(=O)NCCCCN2CC[C@@H](O)C2)c1C [Example 3008, N-(4-((R)-3-hydroxypyrrolidin-1-yl)butyl)-3′-(3-((R)-3-hydroxypyrrolidin-1-yl)propoxy)-2,2′-dimethyl-[1,1′-biphenyl]-3-carboxamide] | 1000 to 10000 | –
